Results: patent publication US20020025312A1, “BIFUNCTIONAL WATER-SOLUBLE POLYMER DERIVATIVE AND COMPLEX CONTAINING IT” (priority 1997, published 2002)

Conditions: 2 mg/kg as adriamycin, tail vein, male BALB/c mouse
Description: To compare retention in blood of the respective liposomes, 2 mg/kg as the amount of adriamycin was administered from the tale vein to a male BALB/c mouse. After each period of time, the mouse was killed, and the plasma was collected. The amount of adriamycin was quantitatively analyzed by measuring fluorescence after extraction with hydrochloric acid/ethanol in accordance with a method of Konno et al. (Cancer Res. 47 4471 (1987)).
Accordingly, the amount of detected adriamycin is considered to reflect the behavior as the relevant liposome.

COc1cccc2c1C(=O)c1c(O)c3c(c(O)c1C2=O)C[C@@](O)(C(=O)CO)C[C@@H]3O[C@H]1C[C@H](N)[C@H](O)[C@H](C)O1 [free adriamycin, adriamycin]
retention in blood (concentration of adriamycin in blood plasma): disappeared from blood swiftly after the administration
